Reference: PMC11275008, “Anti-Inflammatory and Cancer-Preventive Potential of Chamomile (Matricaria chamomilla L.): A Comprehensive In Silico and In Vitro Study” (Biomedicines, 2024)

Molecular target: T1, NF-κB (recombinant human NF-κB; docking used NF-κB p65-RelA) (Homo sapiens, UniProt Q04206)
T1 construct: commercial recombinant protein (Sino Biological); labelled with RED-NHS 2nd generation dye on lysines
Assay: microscale thermophoresis
Type: binding

T1 sequence (Q04206 whole entry): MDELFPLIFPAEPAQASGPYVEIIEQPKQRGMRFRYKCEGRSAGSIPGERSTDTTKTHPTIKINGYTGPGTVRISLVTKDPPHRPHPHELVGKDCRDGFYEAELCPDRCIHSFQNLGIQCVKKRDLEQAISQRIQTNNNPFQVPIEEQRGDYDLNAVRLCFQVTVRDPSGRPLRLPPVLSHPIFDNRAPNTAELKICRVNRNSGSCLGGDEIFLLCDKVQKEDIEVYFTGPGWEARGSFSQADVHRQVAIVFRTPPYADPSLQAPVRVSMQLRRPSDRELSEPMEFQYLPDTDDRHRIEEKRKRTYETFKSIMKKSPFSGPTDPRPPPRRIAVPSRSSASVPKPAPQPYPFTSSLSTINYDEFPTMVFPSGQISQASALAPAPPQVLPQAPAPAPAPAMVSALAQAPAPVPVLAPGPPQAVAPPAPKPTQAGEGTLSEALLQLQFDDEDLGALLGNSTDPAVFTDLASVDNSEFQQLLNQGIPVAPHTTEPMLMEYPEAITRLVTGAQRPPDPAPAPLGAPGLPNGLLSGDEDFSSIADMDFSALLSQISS

With `CC1(C)CC[C@]2(C)CC[C@]3(C)C(=CC[C@@H]4[C@@]5(C)CC[C@H](O)C(C)(C)[C@@H]5CC[C@]43C)[C@@H]2C1` [β-amyrin] the Kd was 943 ± 113 nM.
